Measured values: PubChem BioAssay (NCI)
Values joined by “and” are separate entries in the source; they are usually repeats but may differ in a detail not shown here. Equal values may be shown once.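 Where inhibition never reached the appropriate level, the endpoint shown equals the highest concentration tested. Otherwise, values were interpolated linearly from a five-concentration, 48-hour dose response in 96-well plates. Abbreviation: GI50, concentration required for 50% inhibition of growth. At the TGI there is no net growth.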

Key:
Test in all cases: inhibition of tumour cell growth, NCI panel, 48 h
[1] = tested on: UO-31 renal
[2] = tested on: HL-60(TB) leukemia
[3] = tested on: OVCAR-3 ovarian
[4] = tested on: UACC-62 melanoma
[5] = tested on: M14 melanoma
[6] = tested on: HOP-92 NSCLC
[7] = tested on: ACHN renal
[8] = tested on: SK-MEL-28 melanoma
[9] = tested on: CCRF-CEM leukemia
[10] = tested on: T-47D breast

SMILES	GI50 [1]	TGI [1]	GI50 [2]	TGI [2]	GI50 [3]	TGI [3]	GI50 [4]	TGI [4]	GI50 [5]	TGI [5]	GI50 [6]	TGI [6]	GI50 [7]	TGI [7]	GI50 [8]	TGI [8]	GI50 [9]	TGI [9]	GI50 [10]	TGI [10]
CCCCCCCCCCSC(=N)N (tested in a mixture with another compound)	3.02 µM	13 µM	1.85 µM	4.19 µM	2.36 µM	6.28 µM	1.95 µM	3.96 µM	1.87 µM	3.85 µM	2.66 µM	8.83 µM	2.86 µM	10.1 µM	2650 nM	8.15 µM	3.65 µM	17 µM	1.86 µM	4.95 µM
COc1ccc(Cn2c(Br)c3c(c2Br)-c2nc(N)sc2CC3)cc1	1.59 µM	3.97 µM	2.75 µM	22.6 µM	4.1 µM	15.5 µM	6.97 µM	26 µM	3.96 µM	17.6 µM	2.24 µM	14 µM	3.22 µM	12 µM	4980 nM	18.1 µM	0.472 µM	15.1 µM	3.03 µM	12.8 µM
C[C@@H]1CC[C@H]2C(C)(C)[C@H]3C[C@@]12CC[C@@]3(C)O	–	> 100 µM	–	61.9 µM	–	> 100 µM	–	> 100 µM	–	> 100 µM	–	> 100 µM	–	> 100 µM	–	> 100 µM	–	> 100 µM	–	> 100 µM
c1ccc(-c2n(Cc3ccc4ccccc4n3)cc[n+]2Cc2ccc3ccccc3c2)cc1	2.93 µM	13.2 µM	0.256 µM	0.88 µM	0.766 µM	2.63 µM	0.631 µM	2.06 µM	1.25 µM	3.35 µM	0.175 µM	1.46 µM	3.35 µM	11.4 µM	936 nM	2.84 µM	1.22 µM	6.18 µM	0.378 µM	4.36 µM
COc1cc2c(cc1OC)-c1cc(OC)c(OC)cc1C(CN(C)C)C2 (stereo not given)	> 10 µM	> 10 µM	> 10 µM	> 10 µM	> 10 µM	> 10 µM	> 10 µM	> 10 µM	> 10 µM	> 10 µM	9.97 µM	> 10 µM	> 10 µM	> 10 µM	> 10000 nM	> 10 µM	> 10 µM	> 10 µM	> 10 µM	> 10 µM
COc1ccc2ncnc(Nc3ccc(OCc4ccccc4)cc3)c2c1	3.62 µM	> 17 µM	7.06 µM	16.8 µM	7.08 µM	> 23.1 µM	6.12 µM	> 18.1 µM	8.48 µM	> 25 µM	2.92 µM	16.9 µM	5.88 µM	> 25 µM	9360 nM	> 25 µM	8.49 µM	> 25 µM	5.37 µM	> 25 µM
CC(=O)OCc1ccc2c(c1)C(O)NC(=O)O2 (stereo not given)	–	> 100 µM	–	> 100 µM	–	59.4 µM	–	> 100 µM	–	> 100 µM	–	> 100 µM	–	> 100 µM	–	> 100 µM	–	40.4 µM	–	> 100 µM
COC(=O)c1cc2oc(/C=C3/SC(=S)N(NC(C)=O)C3=O)cc2n1C	14.5 µM	92.7 µM	38.3 µM	> 100 µM	19.2 µM	55 µM	14.7 µM	35 µM	10.8 µM	31.8 µM	19.6 µM	44.5 µM	15.8 µM	43.5 µM	40300 nM	> 100 µM	11.8 µM	76 µM	29.6 µM	90.7 µM
NC(=S)N/N=C\c1nccc2c(C(F)(F)F)cccc12	0.245 µM	3.11 µM	0.286 µM	1.19 µM	0.294 µM	10.8 µM	0.283 µM	1.15 µM	0.224 µM	0.706 µM	0.226 µM	1.35 µM	0.226 µM	5.58 µM	570 nM	12.7 µM	0.278 µM	12.1 µM	0.335 µM	25.7 µM
COc1c2ccccc2c(OC)c2[nH]c(=O)ccc12	8.13 µM	97.3 µM	12.4 µM	> 92.4 µM	2.31 µM	6.89 µM	1.65 µM	3.33 µM	0.843 µM	2.37 µM	33.5 µM	> 100 µM	7.92 µM	> 100 µM	2370 nM	5.1 µM	> 24.5 µM	> 100 µM	21.5 µM	> 100 µM
COC1=CC(=O)C(C2(OC(C)C)OC(=O)C(Cl)=C2Cl)=CC1=O (stereo not given)	–	> 100 µM	–	1.55 µM	–	> 100 µM	–	> 100 µM	–	> 100 µM	–	> 100 µM	–	> 100 µM	–	> 100 µM	–	> 100 µM	–	> 100 µM
CCC(C)SC1SCC2C(=O)N(C)C3(CC3C)C(=O)OCC(NC(=O)c3nc4ccccc4cc3O)C(=O)NC(C)C(=O)N(C)C1C(=O)N(C)C1(CC1C)C(=O)OCC(NC(=O)c1nc3ccccc3cc1O)C(=O)NC(C)C(=O)N2C (stereo not given)	–	0.0127 µM	–	0.00488 µM	0.000162 µM	0.00768 µM	–	5.01e-05 µM	–	0.000846 µM and < 0.025 µM	–	0.000585 µM	0.000296 µM	0.221 µM	0.0302 nM	0.000138 µM	–	0.028 µM and < 0.013 µM	–	0.00514 µM
NCCNCCNCCN	> 100 µM	> 100 µM	> 100 µM	> 100 µM	> 100 µM	> 100 µM	> 100 µM	> 100 µM	> 100 µM	> 100 µM	> 100 µM	> 100 µM	> 100 µM	> 100 µM	> 100000 nM	> 100 µM	> 100 µM	> 100 µM	> 100 µM	> 100 µM
O=C(Nc1cccc(C(F)(F)F)c1)Nc1cccc(C(F)(F)F)c1	0.649 µM	4.21 µM	1.84 µM	5.86 µM	0.408 µM	5.04 µM	0.702 µM	2.66 µM	1.32 µM	3.93 µM	0.786 µM	6.08 µM	0.422 µM	7.6 µM	1860 nM	10.5 µM	0.721 µM	10.8 µM	0.398 µM	2.94 µM
CC(=C(c1ccc(OCCN2CCCCC2)cc1)c1ccc(OCCN2CCCCC2)cc1)c1ccc(Cl)cc1	0.354 µM	0.681 µM	0.452 µM	0.957 µM	0.415 µM	0.783 µM	0.442 µM	0.845 µM	0.438 µM	0.837 µM	0.343 µM	0.711 µM	0.434 µM	0.779 µM	422 nM	0.773 µM	0.493 µM	1.56 µM	0.43 µM	1.04 µM
O=C1NC(=NCc2ccccc2)S/C1=C\c1ccc2ncccc2c1	> 25 µM	> 25 µM	> 25 µM	> 25 µM	> 25 µM	> 25 µM	> 25 µM	> 25 µM	> 25 µM	> 25 µM	> 25 µM	> 25 µM	> 25 µM	> 25 µM	> 25000 nM	> 25 µM	> 17.1 µM	> 25 µM	> 25 µM	> 25 µM
COC(=O)[C@]12CC[C@@H](C)[C@H](C)[C@@H]1C1=CC[C@@H]3[C@@]4(C)C[C@@H](O)[C@H](O)[C@@](C)(CO)[C@@H]4[C@H](O)C[C@@]3(C)[C@]1(C)CC2	6.3 µM	29.8 µM	9.1 µM	30.3 µM	12.8 µM	26 µM	10.1 µM	23.6 µM	12.8 µM	29.4 µM	12.9 µM	27.9 µM	7.8 µM	21.6 µM	11800 nM	30.3 µM	7.77 µM	36.9 µM	7.23 µM	29.1 µM
Nc1nc2[nH]cc(CCc3ccc(C(=O)N[C@@H](CCC(=O)O)C(=O)O)cc3)c2c(=O)[nH]1	0.19 µM	> 100 µM	0.684 µM	> 100 µM	–	> 100 µM	–	> 100 µM	0.158 µM	> 100 µM	–	> 100 µM	0.129 µM	> 100 µM	–	> 100 µM	0.211 µM	> 100 µM	–	> 100 µM
COc1cc(-c2nn(-c3cccc(NC(=O)c4ccccc4)c3)cc2-c2ccncc2)ccc1Cl	0.4 µM	–	0.376 µM	–	0.313 µM	13.9 µM	0.568 µM	> 100 µM	0.565 µM	12.8 µM	0.269 µM	2.06 µM	0.72 µM	> 100 µM	3260 nM	> 100 µM	0.492 µM	> 100 µM	0.843 µM	> 100 µM
Fc1cc(-c2nnc3n2N=C(c2ccc(Cl)cc2)CS3)c(Cl)cc1Cl	2.99 µM	> 20.5 µM	0.96 µM	> 100 µM	13.6 µM	35.8 µM	4.3 µM	14.9 µM	4.87 µM	17.2 µM	13.7 µM	36.1 µM	3.22 µM	9.58 µM	7560 nM	34.8 µM	0.328 µM	1.13 µM	2.76 µM	20 µM
O=C(Nc1nn2c(-c3cc(C(F)(F)F)cc(C(F)(F)F)c3)nnc2s1)C1CCCC1	0.402 µM	5.57 µM	0.407 µM	1.75 µM	0.441 µM	> 37.8 µM	0.253 µM	–	0.957 µM	> 100 µM	0.197 µM	0.876 µM	1.04 µM	> 31.6 µM	734 nM	> 100 µM	0.459 µM	> 82.1 µM	0.375 µM	> 24.6 µM
O=[N+]([O-])c1cc([N+](=O)[O-])c(C(F)(F)F)cc1NN=C(c1ccc(O)cc1)c1ccc(O)cc1	3.15 µM	13.3 µM	3.12 µM	11.8 µM	2.42 µM	6.11 µM	2.07 µM	4.6 µM	3.18 µM	12.7 µM	3.05 µM	18.8 µM	2.41 µM	8.23 µM	1890 nM	4.47 µM	3.71 µM	14.4 µM	2.74 µM	13.3 µM
CCNC(=O)C#Cc1ccc2c(C(=Nc3ccc(CN(C)C)cc3)c3ccccc3)c(O)[nH]c2c1	0.0811 µM	1.34 µM	0.00976 µM	0.932 µM	0.752 µM	> 10 µM	0.00709 µM	0.0775 µM	0.00782 µM	0.114 µM	0.00812 µM	0.0532 µM	0.265 µM	2.58 µM	9.11 nM	0.102 µM	0.00204 µM	5.58 µM	3.21 µM	> 6.87 µM
NC(N)=NS(=O)(=O)c1ccc(N=Nc2c(O)c(C(=O)O)cc3ccccc23)cc1	–	> 100 µM	–	> 100 µM	–	> 100 µM	–	> 100 µM	–	> 100 µM	–	> 100 µM	–	> 100 µM	–	> 100 µM	–	> 100 µM	–	> 100 µM
C=CC(=O)Nc1cc(Nc2nccc(-c3cn(C)c4ccccc34)n2)c(OC)cc1N(C)CCN(C)C	0.604 µM and 0.444 µM	4.09 µM and 2.08 µM	1.47 µM and 1.71 µM	3.33 µM and 3.99 µM	1.4 µM and 1.38 µM	2.93 µM and 3.04 µM	1.85 µM and 1.71 µM	3.61 µM and 3.4 µM	1.91 µM and 1.73 µM	3.6 µM and 3.32 µM	0.793 µM and 0.416 µM	8.39 µM and 3.49 µM	0.272 µM and 0.479 µM	1.95 µM and 1.88 µM	1630 nM and 1620 nM	3.07 µM and 3.12 µM	1.61 µM and 2.19 µM	5.84 µM and 5.33 µM	0.815 µM and 0.363 µM	11.6 µM and > 10 µM
COc1cc2c(cc1OC)C(Cl)C(c1ccc(F)cc1)=C2Cl (stereo not given)	–	33.3 µM	–	24.2 µM	–	30.6 µM	–	29.8 µM	–	29.2 µM	–	22.6 µM	–	26.1 µM	–	33.3 µM	–	29.1 µM	–	21.7 µM
